# Assay results: US10940139B2, “Compounds that interact with the Ras superfamily for the treatment of cancers, inflammatory diseases, rasopathies, and fibrotic disease” (Shy Therapeutics LLC, priority 2017, dated 2021)
# Target: KRas G12D/Q61H double mutant (Homo sapiens (Human), UniProt P01116, G12D/Q61H)
# Test: Ras GTP binding domain inhibition assay (labeled GTP)
# Conditions: 20 μM compound; KRas G12D/Q61H double mutant; read-out: % Inhibition at 20 μM of K-Ras mutant and wild-type protein, KRas G12D Q61H
# Method: Buffer-I: • 50 mM Tris, pH 7.5 • 150 mM NaCl (optional) • 1 mM MgCl2 • 1 mM DTT. • KRas G12D mutant protein was expressed as a His-tagged protein. Purified His-KRas G12D protein was diluted in buffer-I to a final concentration of 3-10 μg/ml. • 200 μl of the diluted His-KRas G12D protein was added to a nickel coated 96 well plate and incubated overnight at 4° C. • The next day, wells were washed 3× in 200 μl of Buffer-I. • Then 200 μl of Buffer-I were added to each well in the presence of 1% DMSO. • Tested compounds were added to the protein-coated wells at a concentration of 20 μM, and incubated for 3 hours at room temperature. While performing IC50 measurements a serial dilution of all tested concentrations was prepared.
# Then 22 μl of Cy3-GTP or Cy5-GTP was added to each well. The labeled GTP was incubated for 45 min. at room temperature. • Following GTP incubation, wells were washed 3× in Buffer-I, and 200 μl of Buffer-I were added to each well. • Following washes, the amount of bound labeled-GTP was measured with an Eppendorf AF2200 plate reader.
# By substituting KRas G12D mutant protein with KRas G12C mutant, KRas wild type, KRas Q61H mutant, KRas G12D/Q61H double mutant or KRas G12C/Q61H double mutant under the assay conditions described above, KRas G12C mutant KRas wild type, KRas Q61H mutant, KRas G12D/Q61H double mutant and KRas G12C/Q61H double mutant inhibition, respectively, were each determined.
# Sequence of KRas G12D/Q61H double mutant (P01116-2 other isoform, or with tags, fused parts or gaps G12D/Q61H): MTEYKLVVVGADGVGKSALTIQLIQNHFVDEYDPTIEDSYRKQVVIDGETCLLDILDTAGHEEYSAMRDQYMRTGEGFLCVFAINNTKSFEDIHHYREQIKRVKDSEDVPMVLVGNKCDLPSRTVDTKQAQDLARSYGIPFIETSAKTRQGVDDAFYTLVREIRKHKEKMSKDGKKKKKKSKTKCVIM
row,SMILES,inhibition at 20 µM [%]
1,CN(Cc1ccccc1C(F)(F)F)S(=O)(=O)CCc1ccccc1[N+](=O)[O-],25 to 50
2,COc1ccc(CCN2CCN(c3ccc(C#N)c(C(F)(F)F)c3)CC2)cc1,25 to 50
3,CCN(C(=O)c1cccc(-n2cccn2)c1)c1ccc(C#N)c(Cl)c1,1 to 25
4,COc1ccc(Cl)cc1CN(c1ccccc1F)S(=O)(=O)C(C)C,25 to 50
5,FC(F)Oc1ccc(N2CCOC(c3ccc(Br)cc3)C2)nc1 (stereo not drawn),25 to 50
6,COc1ccc(C)cc1-n1ccc(C(=O)N2CCCC2C(O)C(F)(F)F)n1 (stereo not drawn),1 to 25
7,CC(C)CC(NC(=O)OC(C)(C)C)c1noc(Cc2c[nH]c3ccccc23)n1 (stereo not drawn),1 to 25
8,COC(=O)C1CCN(S(=O)(=O)NCCOc2ccc(C(C)(C)C)cc2)CC1,25 to 50
9,NCC(=O)NCc1ccc(Oc2ccc(F)c(F)c2)cc1C(F)(F)F,1 to 25
10,OCC1(Cc2ccccc2)CCCN1c1nc(-c2ccccn2)nc2c1CCC2 (stereo not drawn),25 to 50
11,Cc1ccc(C(=O)Oc2cccc(C3CN(C(=O)c4ccc(C)s4)CCO3)c2)s1 (stereo not drawn),1 to 25
12,COC(=O)c1ccc(CN2CC(NC(=O)OC(C)(C)C)CCC2C(F)(F)F)cc1 (stereo not drawn),25 to 50
13,CCOc1ccc(CSc2nnc(-c3ccco3)n2-c2ccccc2)cc1OCC,25 to 50
14,COc1ccc(-c2cc(NC(=O)C3CC(=O)N(C(C)c4ccccc4)C3)ccc2OC)cc1 (stereo not drawn),1 to 25
15,O=C(CSCc1cccc(F)c1)Nc1ccc(-c2ccccc2)cc1,25 to 50
16,CCN(CC)S(=O)(=O)c1cccc(C(=O)N2N=C(c3ccccc3)CC2(O)C(F)(F)F)c1 (stereo not drawn),25 to 50
17,CC(C)c1ccc(CSc2nnc(SCCNC(=O)C3CCCC3)s2)cc1,51 to 75
18,Cc1occc1C(=O)OCC(COC(=O)c1ccoc1C)NC(=O)OC(C)(C)C,25 to 50
19,CCN(c1ncc(C(=O)OC)s1)S(=O)(=O)c1ccc(C)c(C)c1,51 to 75
20,O=S(=O)(Cc1ccc(OC(F)(F)F)cc1)Nc1cccnc1-n1cccn1,25 to 50
21,CCOC(=O)c1c(NC(C)=O)sc(Cc2ccc3c(c2)OCO3)c1C,25 to 50

# Continued, values first:
row,inhibition at 20 µM [%],SMILES
1,25 to 50,CCCn1c(CNc2cccc(Cl)c2OCCOCC)nc2cc(S(=O)(=O)N(C)C)ccc21
2,51 to 75,Cc1ccc(OCc2ccc(C(=O)N(CCC#N)CC3CCC3)o2)c(C)c1
3,25 to 50,CCOc1ccc(C2=NN(C(=O)CC)C(c3ccc(CC)cc3)C2)cc1 (stereo not drawn)
4,25 to 50,O=[N+]([O-])c1cc(C(F)(F)F)ccc1NCc1ccc2c(c1)OCCCO2
5,51 to 75,CCC(C)(C)c1ccc(Oc2ccc(NC(=O)NS(=O)(=O)c3ccc(C)cc3)cc2)cc1
6,51 to 75,CCc1noc(CN(CCN(Cc2nc(CC)no2)c2ccccc2)c2ccccc2)n1
7,1 to 25,CCNC(=O)COc1ccc(CN2CCN(C3CC3)c3ccc(F)cc32)cc1
8,25 to 50,COC(=O)c1cc(NCc2cnc(C(C)(C)C)s2)ccc1Br
9,25 to 50,CC(C)(CN1CCN(c2cccc(Cl)c2)CC1)NS(=O)(=O)c1ccccc1
10,51 to 75,COC(=O)c1ccoc1COc1ccc(C(=O)c2ccc(F)cc2)cc1
11,25 to 50,O=C(Oc1ccc(Oc2ccccc2)cc1)c1ccccc1-c1ccc(C(F)(F)F)cc1

# Same assay, conditions: 20 μM compound; read-out: % Inhibition at 20 μM KRas G12D Q61H
row,SMILES,inhibition at 20 µM [%]
1,O=C(Nc1cccc(C(=O)Nc2nnc(-c3ccccn3)[nH]2)c1)c1cccnc1,25 to 50
2,CCc1c(C)sc2[nH]c(-c3ccccn3)nc(=O)c12,25 to 50
3,CC(C)c1ccc2nc(-c3ccccn3)[nH]c(=O)c2c1,25 to 50
4,Cc1ccccc1CC(=O)Nc1nnc(-c2ccccn2)[nH]1,25 to 50
5,COc1c(C)cnc(CN2CCCCC2c2ncc[nH]2)c1C (stereo not drawn),25 to 50
6,Nc1nc(-c2ccccn2)nn1C(=O)Cc1csc(-c2ccccc2)n1,25 to 50
7,O=C(Cc1ccc(Cl)cc1)Nc1nnc(-c2ccccn2)[nH]1,25 to 50
8,Cc1cc(C(C)C)ccc1OCC(=O)N1N=CCC1(O)C(F)(F)F (stereo not drawn),25 to 50
9,O=C(Nc1nnc(-c2ccccn2)[nH]1)c1ccncc1,25 to 50
10,O=C(CCNS(=O)(=O)c1ccc2c(c1)CCCC2)Nc1nnc(-c2ccccn2)[nH]1,25 to 50
11,O=C(Nc1nnc(-c2ccccn2)[nH]1)c1cc(Cl)sc1Cl,25 to 50
12,O=C(CSCc1ccccn1)Nc1nnc(-c2ccccn2)[nH]1,25 to 50
13,CC(Nc1nc(-c2ccccn2)nc2c1CCC2)c1ccncc1 (stereo not drawn),25 to 50
14,O=C(CCc1ccc(F)cc1)Nc1nnc(-c2ccccn2)[nH]1,25 to 50
15,CC(C1CC1)N(CC(F)(F)F)C(=O)Cc1ccc(Cl)cc1Cl (stereo not drawn),25 to 50
16,CCc1cc2c(=O)[nH]c(-c3ccccn3)nc2s1,25 to 50
17,CC(C)Cc1noc(CN(C)CC23CC4CC(CC(C4)C2)C3)n1,25 to 50
18,OC(CNc1nc(-c2ccccn2)nc2c1CCC2)COCC1CC1 (stereo not drawn),25 to 50
19,COc1ccc(Br)cc1CN(C)C(C)c1nnc(-c2ccc(C)cc2)o1 (stereo not drawn),25 to 50
20,Cc1c(-c2ccccc2)sc2[nH]c(-c3ccccn3)nc(=O)c12,25 to 50
21,CN(C)S(=O)(=O)c1ccc(CN2CCCc3cc(OC(F)(F)F)ccc32)o1,25 to 50

row,SMILES,inhibition at 20 µM [%]
1,Cc1ccc(OCCn2c(CN3CCCCC3)nc3ccccc32)cc1,25 to 50
2,O=C(CCc1ccccn1)Nc1nnc(-c2ccccn2)[nH]1,25 to 50
3,CSc1nnc(CN(Cc2ccccc2)Cc2ccccc2)s1,25 to 50
4,O=C(CCc1nc2ccccc2s1)Nc1nnc(-c2ccccn2)[nH]1,25 to 50
5,O=C(Nc1nc(-c2ccccn2)cs1)c1ccc(=O)[nH]c1,25 to 50
6,COCCN(CCOC)c1nc(-c2ccccn2)nc2c1CCC2,25 to 50
7,CN(Cc1ccc(C(=O)NCC(F)(F)F)cc1)Cc1ccc(F)cc1Cl,25 to 50
8,CCN(CC(=O)Nc1ccc(OC)cc1)Cc1coc(-c2ccc(C)cc2C)n1,25 to 50
9,COC(=O)CCN(Cc1ccc(F)c(F)c1)c1nc(C(F)(F)F)ccc1C#N,25 to 50
10,O=C(Nc1nnc(-c2ccccn2)[nH]1)c1ccc(Oc2ccccc2)cc1,25 to 50
11,O=c1nc(-c2ccccn2)[nH]c2scc(-c3ccco3)c12,25 to 50
12,CC(=O)Nc1cccc(CNc2cc(C)nc(-c3ccccn3)n2)c1,25 to 50
13,COc1ccc(OC)c(S(=O)(=O)N(Cc2ccccc2)Cc2ccccc2)c1,25 to 50
14,Cc1nc(-c2ccccn2)[nH]c(=O)c1CCO,25 to 50
15,Cc1ccccc1OCCn1c(CN2CCCCC2)nc2ccccc21,25 to 50
16,O=c1[nH]c(-c2cc(OCC(F)F)ccn2)nc2cc(F)c(F)cc12,25 to 50
17,CN(Cc1ccccn1)Cc1nc2ccccc2n1C,25 to 50
18,FC(F)(F)c1ccnc(N2CCN(CCc3ccncc3)CC2)n1,25 to 50
19,CCN(CCNC(=O)c1cc(-c2cccnc2)on1)c1cccc(C)c1,25 to 50
20,Cc1cc(C)n(CCCNC(=O)c2cc(S(=O)(=O)N3CCOCC3)ccc2N2CCCC2)n1,25 to 50

# The remaining lines, values ahead:
row,inhibition at 20 µM [%],SMILES
1,25 to 50,O=C(Nc1nc(-c2ccccn2)cs1)c1ccc(=O)n(Cc2ccccc2)n1
2,25 to 50,CC(c1ccc(Cl)cc1Cl)N(C)Cc1nnc(-c2ccccc2)o1 (stereo not drawn)
3,25 to 50,O=c1nc(-c2ccccn2)[nH]c2c1cnn2-c1cccc(C(F)(F)F)c1
4,25 to 50,OC1CCC(Nc2nc(-c3ccccn3)nc3c2CCC3)CC1 (stereo not drawn)
5,25 to 50,O=C(Nc1nnc(-c2ccccn2)[nH]1)C1CCCN(C(=O)c2ccoc2)C1 (stereo not drawn)
6,25 to 50,CCC(C)c1ccc(S(=O)(=O)N(C)C(c2ccccc2)c2ccccn2)cc1 (stereo not drawn)
7,25 to 50,Nc1nc(-c2ccccn2)nn1C(=O)CN1CCS(=O)(=O)CC1
8,25 to 50,O=C(c1ccc(COc2ccccc2)o1)N1CCCc2ccc(F)cc21
9,25 to 50,Cc1noc(C)c1CNc1ccccc1Cc1ccccc1
10,25 to 50,O=C(CCNc1ncccn1)Nc1nnc(-c2ccccn2)[nH]1
11,25 to 50,CC(C)Cc1noc(CNc2cc(C(F)(F)F)ccc2N2CCCC2)n1
12,25 to 50,CN1CCC(C(=O)Nc2nnc(-c3ccccn3)[nH]2)CC1=O (stereo not drawn)
13,25 to 50,O=C(Nc1nnc(-c2ccccn2)[nH]1)C1CC=CCC1 (stereo not drawn)
14,25 to 50,COc1ccc2c(c1)CCCN2C(=O)CN(Cc1ccco1)S(=O)(=O)c1ccc(C)cc1
15,25 to 50,Cc1ccccc1Oc1ncccc1NCc1csc(-c2ccccn2)n1
16,25 to 50,CCCCN(C(=O)c1cnn(-c2ccccc2)n1)c1ccccc1
17,25 to 50,CN(Cc1ccc(C(F)(F)F)cc1)Cc1cc2c(cc1O)CCC2
18,25 to 50,OC1CCC(Nc2nc(-c3ccccn3)nc3scc(-c4ccccc4)c23)CC1 (stereo not drawn)
19,25 to 50,COc1ccccc1OCc1ccc(C(=O)N2CCc3ccccc32)o1
20,25 to 50,Fc1ccc(OCc2nnc(SCCCc3ccccc3)o2)cc1
